{
  "source": "patent US20210087496A1",
  "about": "“Non-Enzymatic Removal Of Proteinaceous Soils” (Henkel AG & Co. KGaA, priority 2019, published 2021)",
  "target": "T1, Maillard product of lactose and albumin from chicken egg (band at ~50-55 kDa) (Gallus gallus, UniProt P01012)",
  "T1 sequence (P01012 1-386)": "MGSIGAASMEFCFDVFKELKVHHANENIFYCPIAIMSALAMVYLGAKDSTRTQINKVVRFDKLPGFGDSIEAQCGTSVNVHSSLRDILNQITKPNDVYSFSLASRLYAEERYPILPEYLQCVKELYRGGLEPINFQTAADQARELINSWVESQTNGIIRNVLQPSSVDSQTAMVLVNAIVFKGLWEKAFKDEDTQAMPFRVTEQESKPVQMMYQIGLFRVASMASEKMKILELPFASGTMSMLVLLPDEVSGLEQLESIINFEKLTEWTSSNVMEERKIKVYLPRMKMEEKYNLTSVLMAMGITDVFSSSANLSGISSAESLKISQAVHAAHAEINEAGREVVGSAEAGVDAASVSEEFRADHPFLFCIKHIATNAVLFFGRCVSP",
  "details": "complex 0.2 mM, Maillard product 3 g/l, 60° C., pH 9.5",
  "note": "Where two headings read alike, the source gives them in different places.",
  "protocol": "A mixture of lactose and albumin from chicken egg, approx. 45 000 g/mol, in a weight ratio of 3:1 was dissolved in de-salinated water and stirred for 30 min at room temperature. The resulting solution was lyophilized using a commercial lab lyophilizer (Christ; Gamma 1-20) and homogenized. 0.5 g of the resulting powder was heated to 140° C. for 20 min and was then allowed to cool to room temperature. […] An aqueous solution of the Maillard product (3 g/l) was incubated at 60° C. at pH 9.5 (hydrogen carbonate/carbonate buffer) with the complexes of examples 1 and 2 at the concentrations and for amounts of time given in table 1. The progress of protein degradation was followed by SDS page gel analysis. The intensity value of the band at ˜50-55 kDa at time t=0, that is before the start of incubation, is set to 1.",
  "data": [
    {"smiles": "O=C1CN2CCN3CC(=O)[O][Zr]([O]1)([O]c1ccccc1C2)[O]c1ccccc1C3", "note": "[Complex K1]", "values": [
      {"measurement": "Intensity of the band at ~50-55 kDa", "setting": "t = 0 h (before start of incubation, set to 1)", "result": 1},
      {"measurement": "Intensity of the band at ~50-55 kDa", "setting": "t = 1 h, relative to t=0 set to 1", "result": 0.91},
      {"measurement": "Intensity of the band at ~50-55 kDa", "setting": "t = 2 h, relative to t=0 set to 1", "result": 0.83}
    ]}
  ]
}
